One substance from patent US6953783B1, “Modulation of gene expression by combination therapy” (MethylGene, Inc., priority 1998, dated 2005) can be followed below.

Common to all, as to assay type: cell-based, human
One assay concerns p16^ink4A protein. In words: p16^ink4A protein by immunoprecipitation and Western blotting in T24 cells. The text has this: The cyclin-dependent kinase inhibitor (CDKI) p16^ink4A regulates the transition from G1 to S-phases of the cell cycle (Serrano et al. (1993) Nature 366: 704-707). Inactivation of p16^ink4A is one of the most frequently observed abnormalities in human cancer (Serrano et al., supra). Transcriptional inactivation and associated hypermethylation of the p16^ink4A promote region have also been observed in virtually all types of cancer (Gonzales-Zulueta et al. (1995) Cancer Res. 55: 4531-4535; Merlo et al. (1995) Nat. Med. 7: 686-692; Costello et al. (1996) Cancer Res. 56: 2405-2410; Lo et al., Cancer Res. 56: 2721-2725). To investigate the effect of specifically reducing cellular DNA MeTase levels on the expression and methylation status of a silenced p16^ink4A gene, T24 human bladder cancer cells that contain a hypermethylated and silenced p16^ink4A gene were transfected with 40 nM or 75 nM MG88 or control oligonucleotide MG208 with 6.25 μg/ml lipofectin for four hours each day for up to 10 consecutive days. On days 3, 5, 8, and 10, p16^ink4A protein levels were then analyzed by immunoprecipitation followed by Western blotting analysis with a p16^ink4A protein-specific antibody (PharMingen). HeLa cells were used as a positive (+) control for p16^ink4A protein expression.
Next, to determine whether de novo methylation and silencing of the re-expressed p16^ink4A gene occurred when DNA MeTase returned to normal levels, T24 cells were transfected for 10 consecutive days with either 40 or 75 nM or MG88 or MG208. […] Cell lysates of the T24 cells transfected for ten days were analyzed by Western blotting analysis for expression of DNA MeTase protein,p16^ink4A protein, and actin protein (as a control for equal loading) 3, 5, and 7 days after MG88 transfection.

A further assay has as its system p21^WAF1. Kind of assay: p21^WAF1 protein levels by Western blotting in T24 cells. Here is the method: Another member of the cyclin-dependent kinase inhibitor (CDKI) family, p21^WAF1, inhibits a wide range of cyclin/CDK complexes involved in G1 and S phase progression (Tam et al. (1994) Cancer Res. 54: 5816-5820; Baghdassarian and French (1996) Hematol. Cell Ther. 88: 313-323; Gotz et al. (1996) Oncogene 13: 391-398). […] To do this, DNA MeTase, p21^WAF1, and α-actin protein levels were measured by Western blotting analysis in T24 cells that had been treated for either 24 hours (i.e., one 4 hour transfection time) or 48 hours (i.e., two […] transfections 24 hours apart) with either 40 nM or 75 nM of either MG88 or MG208.
T24 cells were also treated for 24 hours (i.e., four hour transfection) with lipofectin only, or lipofectin plus 20, 40, or 80 nM of MG88 or MG208. After treatment, cell lysates were prepared and analyzed by Western blotting analysis with α-actin-specific antibody or p21-specific antibody.

Another assay has as its system T24 cells. Kind of assay: T24 cell proliferation during and after treatment (cell counting). The text has this: To study the effect of specific inhibition of DNA MeTase on cell growth, cellular proliferation rates were monitored both during the treatment and post treatment periods to determine the duration of the effect. […] During and following treatment, cells were counted. […] To determine whether the transient re-expression of p16^ink4A and growth-inhibitory effects induced by short term treatment with MG88 were due to the expansion of a less affected (less demethylated) population of cells within the treated population, or to rapid inactivation of p16^ink4A after MG88 withdrawal, single cell clones were isolated after treatment. Several MG88 clones were, in fact, p16^ink4A negative, confirming that the MG88 treatment produced a mixed population of p16^ink4A positive and negative cells.

A further assay has as its system p16^ink4A promoter. Kind of assay: Methylation specific PCR and bisulfite genomic sequencing of the p16^ink4A promoter in T24 cells. Here is the method: To identify changes in the methylation status of the p16^ink4A promoter induced by MG88 treatment, methylation specific PCR (MSP) and bisulfite genomic sequencing was performed as previously described ([…] et al. (1994) Nat. Gen. 8: 27-32; Frommer et al. (1991) Proc. Nat. Acad. Sci. USA 89: […]). […] Briefly, the Oncor p16 detection system was used (commercially available from Oncor, Gaithersburg, Md.). PCR was performed in a total volume of 25 μl under the following conditions: 100 ng bisulfate-treated DNA (Oncor),10 mM Tris-HCl, pH 8.3, […], 1.5 mM MgCl2, 250 μM dNTPs, 80 ng of each of the following primers ([NT] sense (SEQ ID NO: 79) and [NT] antisense (SEQ ID NO: 80)) and 1 unit of AmpliTaq Gold (Perkin-Elmer). The denaturation cycle was 95° C. for 12 min followed by 35 cycles at 95° C. for 45 seconds, 60° C. for 45 seconds, and 72° C. for 60 seconds, and an elongation cycle of 72° C. for 10 minutes. the PCR product (5 μl) was analyzed on a 2% agarose gel. The unmethylated (U) and demethylated (D) primers (commercially available from Oncor) were used at the same conditions as the specific primers.

Another assay relates to p21^WAF1 mRNA. Kind of assay: RNase protection assay for p21 mRNA in T24 cells. As to conditions: 40 nM, 24 or 48 hours. Here is the method:
Next, to determine if p21^WAF1 was induced at the transcriptional level, RNase protection assay were performed on cells treated with 40 nM of either MG88 or MG208 for either 24 or 48 hours. Total cellular RNA was isolated from the cells and analysed for p21 mRNA, p27 mRNA, and p18 mRNA using the human cell cycle-2 (hcc-2) multiprobe RNase protection kit commercially available from PharMingen, San Diego, Calif.). RNA loading was determined to be equal using the signals from two housekeeping genes, L32 and GAPDH.

As for 5′-AAGCAT GAG CAC CGT TCUCC-3′ [MG88], the “induction of expression of p16^ink4A protein” value with p16^ink4A protein (40 nM or 75 nM, 4 h each day up to 10 days) is given as “detected after 5 days of treatment”. Also, in the assay on p16^ink4A protein (after 10 day treatment with 40 nM), the “p16^ink4A protein level post-treatment” value is “barely detectable at day 7 post-treatment”. For the same substance, the “p21^WAF1 protein level” value in the assay with p21^WAF1 (40 nM or 75 nM, 24 or 48 hours) is given as “increased directly with the reduction in DNA MeTase”. Also, in the assay with p21^WAF1 (20, 40 or 80 nM, 24 hours), the “p21^WAF1 protein induction, dose response” value was “induced p21^WAF1 in a dose dependent fashion”. For the same substance, the “antiproliferative and cell death effect” value in the assay with T24 cells (75 nM, 10 consecutive days) was “significant antiproliferative and cell death inducing effect”. Besides, in the assay with T24 cells (75 nM, days 0-5, relative to lipofectin), the “cell proliferation during treatment” value is on record as “dramatically inhibited cell proliferation”. Further, the “persistence of inhibition of cell proliferation” value with T24 cells (after 5 day treatment with 75 nM) is “approximately one week post-treatment”. The “demethylated CpG sites of p16^ink4A promoter (bisulfite sequencing)” value with p16^ink4A promoter (T24 cells, day 5 of treatment, 15 sites in all) is on record as 15 CpG sites. Also, in the assay with p16^ink4A promoter (T24 cells, three days after cessation of treatment), the “re-methylated sites of p16^ink4A promoter” value was 13 of 15. In the assay with p16^ink4A promoter (T24 cells, treated 3, 5, 9 or 10 days), the “demethylation of the p16^ink4A promoter region (MSP)” value is recorded as “occurred as early as day 3 of MG88 treatment”. The “methylation of p16^ink4A promoter in positive clone C4-5” value with p16^ink4A promoter (thirty days after a five day treatment (75 nM)) is “completely non methylated at all CpG sites evaluated”. The “p21^WAF1 mRNA” value in the assay on p21^WAF1 mRNA is given as “no increase in p21^WAF1 mRNA”.
